The text below walks through data of PubChem BioAssay (NCI).

The structures appear in SMILES notation.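 Results reflect a 48-hour exposure of cells in 96-well plates to compound at five concentrations. Here, GI50 denotes the concentration required for 50% inhibition of growth. At the TGI there is no net growth.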

Among the test systems are NCI-H23 lung; SF-539 CNS; HCT-116 colon; OVCAR-4 ovarian; LOX IMVI melanoma; OVCAR-8 ovarian; NCI-H460 lung; IGROV1 ovarian; HS 578T breast; RXF 393 renal.
Assay in all cases: NCI anticancer screen, dose series, 48 h

As for `O[C@@H]1C[C@H](Cl)c2c(Cl)sc(Cl)c21`, the TGI in the assay with NCI-H23 lung, in the assay on SF-539 CNS, in the assay with HCT-116 colon, in the assay with OVCAR-4 ovarian, in the assay on LOX IMVI melanoma and in the assay on OVCAR-8 ovarian was more than 100 µM each time. The TGI in the assay on NCI-H460 lung, in the assay with IGROV1 ovarian, in the assay with HS 578T breast and in the assay on RXF 393 renal was more than 100 µM throughout.
Take `COc1ccc2nc3c([N+](=O)[O-])ccc(NCCN(C)C)c3c(N)c2c1`: the TGI in the assay on NCI-H23 lung stood at 3.73 µM; in the assay on SF-539 CNS, 3.05 µM; in the assay with HCT-116 colon it was 0.296 µM; in the assay with OVCAR-4 ovarian, 2.95 µM; in the assay with LOX IMVI melanoma, 1.08 µM; in the assay with OVCAR-8 ovarian, 4.33 µM. Besides, the TGI with NCI-H460 lung came to 2.95 µM; in the assay on IGROV1 ovarian it was 2.74 µM; in the assay with HS 578T breast, 4.5 µM; in the assay with RXF 393 renal it was 3.36 µM.
As to `CSc1ncc2c(n1)-c1ccccc1OC2N1CCOCC1` (configuration not stated), the TGI in the assay with NCI-H23 lung, in the assay with SF-539 CNS, with HCT-116 colon, with OVCAR-4 ovarian, in the assay on LOX IMVI melanoma and in the assay on OVCAR-8 ovarian was more than 100 µM each time. Besides, the TGI in the assay with NCI-H460 lung, in the assay with IGROV1 ovarian, in the assay on HS 578T breast and with RXF 393 renal was more than 100 µM throughout.
With `CCOC(=O)c1[nH]cc(C)c1-c1cccn1-c1ccc(Cl)cc1[N+](=O)[O-]`, the TGI in the assay with NCI-H23 lung was more than 100 µM; with SF-539 CNS, 43.9 µM; with HCT-116 colon, 30.4 µM; with OVCAR-4 ovarian, more than 100 µM; in the assay with LOX IMVI melanoma it was 31.3 µM; in the assay on OVCAR-8 ovarian, 78.9 µM. In addition, the TGI in the assay with NCI-H460 lung is 48 µM; in the assay on IGROV1 ovarian, 49.9 µM; with HS 578T breast, 51.2 µM; in the assay on RXF 393 renal, 33.5 µM.
For `Cc1nn(C(=O)c2ccccc2O)c2c1C(c1ccc(O)cc1O)SC(N)=N2` (configuration not stated), the TGI in the assay on NCI-H23 lung, in the assay on SF-539 CNS, with HCT-116 colon, with OVCAR-4 ovarian, in the assay on LOX IMVI melanoma and with OVCAR-8 ovarian was more than 10 µM throughout. The TGI is more than 10 µM in the assay with NCI-H460 lung, more than 10 µM with IGROV1 ovarian, 8.84 µM in the assay on HS 578T breast and more than 10 µM in the assay on RXF 393 renal.
Consider `COc1ccc2c(c1)N(Cc1ccc(Cl)cc1)CCC2N1CCCC1=O` (configuration not stated), for which the GI50 was 4.37 µM in the assay on NCI-H23 lung; 4.94 µM in the assay with SF-539 CNS; 5.24 µM in the assay with HCT-116 colon; 3.54 µM in the assay with LOX IMVI melanoma; 4.6 µM in the assay on OVCAR-8 ovarian; 4.22 µM in the assay on NCI-H460 lung. In addition, the results for the GI50 with IGROV1 ovarian, in the assay on HS 578T breast and in the assay on RXF 393 renal were 3.51 µM, 2.76 µM and 2.77 µM, respectively. The TGI is 57.2 µM with NCI-H23 lung; 69.3 µM with SF-539 CNS; more than 100 µM with HCT-116 colon; more than 100 µM in the assay with LOX IMVI melanoma; 57.3 µM with OVCAR-8 ovarian; more than 100 µM in the assay with NCI-H460 lung. Moreover, the results for the TGI in the assay on IGROV1 ovarian, in the assay on HS 578T breast and with RXF 393 renal were more than 100 µM, 26.5 µM and 10.9 µM, respectively.
`Clc1cc(-c2ccccc2)nc(Nc2nc3ccccc3[nH]2)n1`: the TGI in the assay on NCI-H23 lung was 56 µM; in the assay with SF-539 CNS, more than 100 µM; with HCT-116 colon, more than 100 µM; in the assay on OVCAR-4 ovarian it was 33 µM; with OVCAR-8 ovarian, 54.2 µM; in the assay with NCI-H460 lung, 93.7 µM. In addition, the TGI was determined as 33.2 µM with IGROV1 ovarian, 80.2 µM in the assay on HS 578T breast and 19.1 µM with RXF 393 renal.
Regarding `COc1ccc(-n2c(SC(CN3CCOCC3)CN3CCCC3=O)nc3ccccc3c2=O)cc1` (configuration not stated), the TGI in the assay on NCI-H23 lung, in the assay on SF-539 CNS, with HCT-116 colon, in the assay on OVCAR-4 ovarian, in the assay with OVCAR-8 ovarian and in the assay with NCI-H460 lung was more than 100 µM throughout. Besides, the TGI in the assay on IGROV1 ovarian, in the assay with HS 578T breast and with RXF 393 renal was more than 100 µM in each case.
Consider `Cc1c(Cc2ccccc2)n(C(C)OCCN(OC(=O)Oc2ccccc2)C(=O)Oc2ccccc2)c(=O)[nH]c1=O` (configuration not stated), for which the TGI was 31 µM in the assay on NCI-H23 lung; 37.4 µM in the assay on SF-539 CNS; 41.6 µM with HCT-116 colon; 42.8 µM in the assay on OVCAR-4 ovarian; 34.7 µM with OVCAR-8 ovarian; 32.7 µM in the assay on NCI-H460 lung. For the same compound, the figures for the TGI with IGROV1 ovarian, with HS 578T breast and in the assay with RXF 393 renal were 31.7 µM, 42.6 µM and 30.1 µM, respectively.
`CSc1cc(Cl)c(C)cc1S(=O)(=O)NC(=O)NNc1ccc(F)cc1`: the TGI in the assay on SF-539 CNS, with HCT-116 colon, in the assay on OVCAR-4 ovarian, in the assay on LOX IMVI melanoma, in the assay with OVCAR-8 ovarian and in the assay on NCI-H460 lung was more than 100 µM throughout. Besides, the TGI with IGROV1 ovarian, in the assay on HS 578T breast and with RXF 393 renal was more than 100 µM each time.
As to `O=C(CN1CCCC1=O)CS(=O)(=O)c1ccccc1`, the TGI in the assay with NCI-H23 lung, in the assay on SF-539 CNS, with HCT-116 colon, with LOX IMVI melanoma, in the assay on OVCAR-8 ovarian and with NCI-H460 lung was more than 100 µM throughout. Besides, the TGI with IGROV1 ovarian, in the assay on HS 578T breast and in the assay on RXF 393 renal was more than 100 µM in each case.
Regarding `O=C1/C(=C/c2ccc(Cl)cc2)Oc2cc(O)ccc21`, the TGI in the assay on NCI-H23 lung was more than 100 µM; in the assay on SF-539 CNS, 61.3 µM; in the assay with HCT-116 colon, more than 100 µM; with OVCAR-4 ovarian it was more than 100 µM; in the assay with OVCAR-8 ovarian, more than 100 µM; with NCI-H460 lung, 89.3 µM. Also, the TGI is more than 100 µM with IGROV1 ovarian, 46.6 µM with HS 578T breast and more than 100 µM in the assay on RXF 393 renal.
